Common to all, as to assay: NCI anticancer screen, dose series, 48 h
Assay [1] concerns HCT-15 colon.
The subject of assay [2] is IGROV1 ovarian.
Assay [3] has as its system NCI-H522 lung.
The test system of assay [4] is OVCAR-5 ovarian.
Assay [5] relates to OVCAR-8 ovarian.
The subject of assay [6] is PC-3 prostate.
Assay [7] concerns SK-MEL-5 melanoma.
In assay [8] the test system is UACC-257 melanoma.
Assay [9] has as its system SK-OV-3 ovarian.
Assay [10] deals with UACC-62 melanoma.

Each structure is given as a SMILES string. Values joined by “and” are separate entries in the source; they are usually repeats but may differ in a detail not shown here. Equal entries are not always repeated.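 Interpolation was linear, between the two tested concentrations surrounding the appropriate level; five concentrations were tested over 48 hours in 96-well plates. The concentration for 50% growth inhibition is given as GI50. TGI: total growth inhibition.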 Where a SMILES comes first, the peptide text is derived from it. The star is where a group is joined. Palmitoyl = CCCCCCCCCCCCCCCC(=O)* Some results are limits rather than exact numbers.

`CCC1(O)CN(CCOC)[C@H]2C[C@@H]1C(=O)c1[nH]c3ccccc3c12` (stereo partly specified): the TGI in assay [1], in assay [2], in [3], in assay [4], in [5] and in assay [6] was greater than 100 µM in each case. Moreover, the TGI in [7] and in assay [8] was greater than 100 µM each time.
On to `Cc1c(-c2coc(-c3ccc(Cl)cc3)n2)c(=O)n(-c2ccccc2)n1C`, for which the TGI in assay [1], in [2], in assay [3], in [4], in assay [5] and in assay [7] was greater than 100 µM each time. The TGI in [9], in assay [8] and in assay [10] was greater than 100 µM throughout.
On to `COC(=O)c1ccc(OCc2ccc3nc(-c4ccccc4)c(Cl)nc3c2)cc1`, for which the TGI was greater than 100 µM in [1]; greater than 100 µM in [2]; 45.7 µM in assay [3]; greater than 100 µM in assay [4]; greater than 100 µM in [5]; greater than 100 µM in assay [6]. Further, the TGI in assay [7], in assay [8] and in assay [10] was greater than 100 µM in each case.
Take `Cc1cnc2[nH]c(-c3ccccc3)cc(=O)c2c1`: the TGI is 1.41 µM in assay [1]; greater than 100 µM in assay [2]; 0.526 µM in [3]; greater than 100 µM in assay [4]; 0.629 µM in assay [5]; greater than 57.3 µM in [6]. The figures for the TGI in [7] and in [9] were 21.2 µM and 16.4 µM, respectively.
As to `O=C(CCCN1CCc2[nH]c3cc(F)ccc3c2C1)c1ccc(F)cc1`, the TGI in assay [1] turned out to be 31.3 µM; in assay [2], 30.2 µM; in assay [3], 35.6 µM; in [4], 24.7 µM; in assay [5], 28.4 µM; in assay [6], 25.7 µM. The results for the TGI in assay [7], in assay [8] and in [10] were 30.8 µM, 28.8 µM and 25.5 µM, respectively.
For the compound `COc1cccc(N2N=C3c4ccccc4-n4c(nc5ccccc54)C3C2N)c1` (stereo unspecified), the TGI in assay [1], in assay [2], in [3], in assay [4], in assay [5] and in assay [6] was greater than 100 µM in each case. Also, the TGI in [7], in [8] and in assay [10] was greater than 100 µM throughout.
For the compound `CCOc1cc(C=O)ccc1O`, the TGI in [1], in [2], in [3], in [4], in assay [5] and in assay [6] was greater than 100 µM each time. In addition, the TGI in assay [7] and in [8] was greater than 100 µM in each case.
`CCN(CC)c1ccc(C(=C2C=CC(=[N+](CC)CC)C=C2)c2ccccc2)cc1`: the TGI in assay [1] turned out to be 0.587 µM; in assay [2], 0.247 µM; in assay [3], 0.143 µM; in [4], 0.342 µM; in [7], 0.041 µM; in assay [9], 0.0854 µM. In addition, the TGI was found to be 0.18 µM in assay [8] and 0.231 µM in [10].
Regarding `C=C1C(=O)C[C@@]23CCC[C@@]12CC(O)C3` (stereo partly specified), the TGI is 28.8 µM in assay [1]; 12.8 µM in assay [2]; 7.55 µM in [3]; greater than 54.2 µM in assay [4]; greater than 100 µM in assay [5]; greater than 39.5 µM in assay [7]. The TGI is 67.5 µM in assay [9], 52.3 µM in [8] and 30.9 µM in [10].
As to `COc1cc2c(c(OC)c1OC)-c1ccc(SC)c(=O)cc1[C@@H](NC(=O)c1ccc(C#N)cc1)CC2`, the TGI in [1] was greater than 100 µM; in [2], greater than 100 µM; in assay [3], less than 0.01 µM; in assay [5] it was 12.9 µM; in [7] it was less than 0.01 µM; in assay [8] it was greater than 100 µM. Moreover, in [10], the TGI was greater than 100 µM.
In the case of `CC(=O)c1c(O)c(C)c(O)c2c1OC1=CC(=O)C(C(C)=O)C(=O)C12C` (stereo unspecified), the GI50 in [1] was 5.23 µM and 16.6 µM; in assay [2], 5.63 µM and 17.9 µM; in assay [3], 4.15 µM and 19.3 µM; in [4], 17.1 µM and 38.1 µM; in assay [5], 4.84 µM and 14.1 µM; in assay [7], 3.56 µM and 16.5 µM. The GI50 in [9] is 9.68 µM and 26.5 µM; in [8], 6.02 µM and 30.4 µM; in assay [10], 4.86 µM and 12.7 µM. Also, the TGI in [1] was 27.6 µM and 60.4 µM; in assay [2], 38.5 µM and 75.4 µM; in assay [3], 15.2 µM and 56.6 µM; in [4] it was 50.4 µM and 84.6 µM; in assay [5] it was 22.3 µM and 52.2 µM; in [7] it was 9.29 µM and 33.8 µM. Further, the TGI in assay [9] was 56.1 µM and 80.6 µM; in assay [8], 22.7 µM and 64.5 µM; in [10], 20.1 µM and 26.4 µM.
With `CC(=O)Nc1ccc(C(=O)N2N=C(C)/C(=C/c3cccc(O)c3)C2=O)cc1`, the TGI in assay [1], in assay [3], in assay [4], in assay [5], in assay [7] and in assay [8] was greater than 100 µM throughout.
On to `COC1(OC)/C(=C(\N)C=O)NC(C)(C)N1O`, for which the TGI in assay [2], in assay [3], in assay [4], in [5], in assay [6] and in assay [7] was greater than 100 µM throughout. In addition, the TGI in assay [8] and in assay [10] was greater than 100 µM each time.
Take `Clc1ccccc1C1=NN(c2ccccc2)C2c3cc(Br)ccc3OCC12` (stereo unspecified): the TGI in assay [2], in [3], in assay [4], in [5], in [9] and in assay [8] was greater than 100 µM throughout.
As for `CCCCCCCCCCCCCCCC(=O)NC(CCCCN)C(=O)NCC(=O)NC(Cc1ccccc1)C(=O)N1CCCC1C(=O)NC(CO)C(=O)NC(Cc1ccc(O)cc1)C(=O)NC(CCCCN)C(=O)NC(CC(C)C)C(=O)NC(CCCN=C(N)N)C(=O)N1CCCC1C(=O)NCC(N)=O` (stereo unspecified) (Palmitoyl-KGFPSYKLRPG-NH2; configuration not given here), the GI50 in [2] is 17.8 µM; in [3], 22.1 µM; in [4] it was 20.7 µM; in assay [5], 21.9 µM; in assay [7], 27.7 µM; in assay [9], 23 µM. Besides, in [8], the GI50 is 21.8 µM. Also, the TGI in assay [2] is 44.3 µM; in [3], 50.6 µM; in assay [4], 48.1 µM; in assay [5], 52.8 µM; in assay [7] it was greater than 100 µM; in [9], 44.7 µM. This compound also displayed a TGI in [8] of 48 µM.
Turning to `Cc1[nH]c(=O)nc(N/N=C/c2ccc(O)cc2)c1C(=O)Nc1ccc(Cl)cc1`, the TGI in assay [1], in assay [2], in assay [3], in assay [5], in [7] and in assay [9] was greater than 100 µM in each case. Further, the TGI in [8] and in assay [10] was greater than 100 µM throughout.
In the case of `COc1cc2cc3c4c(cc(OC)c(OC)c4c2cc1OC)CCN3C(=O)OCCBr`, the TGI in assay [1], in assay [2], in assay [3], in assay [4], in assay [5] and in assay [7] was greater than 100 µM each time. The TGI in assay [9], in assay [8] and in assay [10] was greater than 100 µM each time.
Take `COc1cc(CC(=O)c2ccc3c(c2)OCO3)cc(OC)c1OC`: the TGI in [1], in [2], in assay [3], in assay [4], in assay [5] and in assay [7] was greater than 100 µM in each case. Moreover, the TGI in assay [9], in [8] and in [10] was greater than 100 µM throughout.
With `Fc1nc(F)nc(-c2c3ccccc3c3n2CCS3)n1`, the TGI in [1], in [2], in assay [3], in assay [4], in assay [7] and in [9] was greater than 100 µM throughout.
Turning to `O=C(O)CCCc1nc2c(n1-c1ccccc1)C(=O)c1ccccc1C2=O`, the TGI in assay [1], in assay [2], in assay [3], in assay [4], in [5] and in assay [9] was greater than 100 µM each time. Besides, the TGI in [8] and in assay [10] was greater than 100 µM throughout.
On to `CC(=O)OCC1OC(n2c3c(c(-c4ccco4)c(C#N)c2=S)CCCC3)C(OC(C)=O)C(OC(C)=O)C1OC(C)=O` (stereo unspecified), for which the TGI is greater than 31.6 µM in assay [1]; greater than 31.6 µM in assay [2]; greater than 31.6 µM in assay [3]; greater than 31.6 µM in assay [4]; greater than 100 µM in assay [5]; greater than 31.6 µM in assay [7]. The same compound registered a TGI in assay [8] greater than 31.6 µM.
Consider `Cc1cccc(N2CCN(S(=O)(=O)c3ccc(Cl)cc3)C2=N)c1C`, for which the TGI in [2] is 99.3 µM; in assay [4] it was greater than 100 µM; in assay [5], greater than 100 µM; in assay [7], greater than 100 µM; in assay [9], greater than 100 µM; in assay [8], greater than 100 µM. The TGI in assay [10] was greater than 100 µM.
As for `COC(=O)C(=O)C(C(=O)C(=O)Nc1ccccc1C(N)=O)c1nc2ccc(C(=O)c3ccccc3)cc2[nH]c1=O` (stereo unspecified), the TGI in assay [1] is greater than 100 µM; in assay [2], greater than 100 µM; in assay [3], 93.8 µM; in assay [4], greater than 100 µM; in assay [5], greater than 100 µM; in assay [7], greater than 100 µM. For the same compound, the TGI in [8] was greater than 100 µM; in [10], 65.4 µM.
As to `CCCCCCCCC(=O)NCCCNCCCNC(=O)CCCCCCCC`, the TGI came out at 28.2 µM in assay [1]; 10.6 µM in assay [2]; 18.8 µM in assay [3]; 28.5 µM in assay [4]; 32.9 µM in assay [5]; 14.1 µM in assay [7]. Besides, the TGI in [9] was found to be 29.2 µM; in assay [8] it was 19.9 µM; in assay [10], 12.3 µM.
Consider `C[C@@H](C[C@@H](O)[C@H](O)C(C)(C)O)[C@H]1CC=C2[C@]3(C)[C@H](O)C[C@H]4C(C)(C)[C@H](O)CC[C@]4(C)[C@H]3CC[C@@]21C`, for which the TGI in assay [1] was found to be 36.1 µM; in assay [2] it was 30.1 µM; in [3], 28 µM; in assay [4] it was 33.4 µM; in assay [5], 33.8 µM; in assay [6], 28 µM. The TGI in assay [7] worked out at 28.1 µM; in assay [8], 32 µM.
In the case of `COc1ccccc1NC(=O)C(=O)C1C(=O)Nc2ccccc2S1=O` (stereo unspecified), the TGI in assay [1], in [2], in assay [3], in assay [4], in assay [5] and in assay [7] was greater than 100 µM in each case. Besides, the TGI in [9], in assay [8] and in assay [10] was greater than 100 µM in each case.
For `CSc1nc2c(ncn2C2OCC(O)C(O)C2O)c(=O)[nH]1` (stereo unspecified), the TGI in assay [1], in assay [2], in [3], in assay [4], in assay [5] and in assay [7] was greater than 100 µM each time. In addition, the TGI in [9], in [8] and in [10] was greater than 100 µM throughout.
Take `O=C(CCN1CCCCC1CO)Nc1ccc2c(c1)C(=O)c1ccc(NC(=O)CCN3CCCCC3CO)cc1C2=O` (stereo unspecified): the TGI is 54 µM in assay [1]; 23.1 µM in assay [2]; 20.6 µM in assay [3]; 67.5 µM in assay [4]; 39.6 µM in assay [5]; 29 µM in assay [7]. Further, the TGI came out at 46.2 µM in assay [9], 91.3 µM in [8] and 23.6 µM in [10].
As for `c1ccc(COc2ncccc2C2SCCCS2)cc1`, the TGI in [1], in [2], in [3], in assay [4], in [5] and in [6] was greater than 100 µM in each case. Moreover, the TGI in assay [7], in [8] and in [10] was greater than 100 µM each time.

The record behind these values is PubChem BioAssay (NCI).
